Tested on: C57BL/6J mice
Test: Lithiasis of the gallbladder and cholesterol crystals in gallbladder bile, protocol #1 (14 days)
Format: in vivo, mouse
Conditions: for formation of cholesterol crystals and cholesterol gallstones: C57BL/6 mice on lithogenic diet plus ezetimibe
Text: Experimental Animal Disease Models. Spontaneous cholelithiasis is extremely rare in experimental or wild animals, probably because they secrete low levels of cholesterol into the bile and have therefore non-saturated cholesterol bile. However, different animal models (rabbit, hamster, prairie dog, squirrel and mouse) develop cholelithiasis similar to the human disease on cholesterol rich plus bile salts (cholic acid) and sometimes triglycerides rich experimental diets. The mouse is the best characterized experimental model where the development of the disease is dependent of a diet known as “lithogenic” (1.25% cholesterol, 0.5% cholic acid, 15% fat). Under these conditions most of the available mouse strains develop cholesterol cholelithiasis in variable proportions and times (Paigen, 2002). It has been established that there are strains more susceptible or more resistant to develop cholelithiasis, which could be genetically determined. The mice strains C57L and C57BL/6 are particularly susceptible to develop cholelithiasis (80-100% of the animals develop the disease in 2-4 weeks on lithogenic diet) (Paigen, 2002; Bouchard et al., unpublished data communicated in www.jax.org/pub-cgi/phenome). Studies performed in these models during the last years have been vital in the better understanding of the disease and for the discovery of genes that are potentially relevant in generating susceptibility to the illness (Paigen, 2002). In this preclinical innovation work we use the mouse strain C57BL/6.
We used mice C57BL/6J susceptible to the development of cholelithiasis originally obtained from Jackson Corp (Bar Harbor, Me., USA) and the colonies were grown in our Laboratory of Gastroenterology, Facultad de Medicina, P. Universidad Católica de Chile. The experimental groups were fed a control chow diet low in cholesterol (<0.02% cholesterol, Prolab RMH3000, PMI Feeds Inc., St. Louis, Mo.) or a lithogenic diet (1.25% cholesterol, 0.5% cholic acid, 15% fat, TD90221, Harlan Teklad, Madison, Wis.) (Amigo et al. 2000). These mice were also treated with Ezetimibe (Zetia®, Merk/Schering Plough) or placebo. In protocol #1 Zetia® tablets were grinded in a porcelain mortar and dissolved in water to be administered to the mice in one daily dose (08 h) of 5 mg/Kg weight by gavage in a final volume of […]; the control groups were given the same volume of water by gavage without the drug. In protocol #2 Zetia® tablets were grinded in the same way described above, dissolved in 200 cc 100% ethanol (Merck) and added to the lithogenic diet previously grinded and dried for 48 h at room temperature. C57BL/6J mice received this lithogenic diet plus Zetia® in a estimated dose of 5-6 mg/kg/day during 30 days (the mice consume 4-5 gr of diet per day). […]

Question: Which “formation of cholesterol crystals and cholesterol gallstones” value does the source give for `O=C1[C@H](CC[C@H](O)c2ccc(F)cc2)[C@@H](c2ccc(O)cc2)N1c1ccc(F)cc1` [Ezetimibe, (−)-1-(4-fluorophenyl)-(3R)-[3-(4-fluorophenyl)-(.S)-hydroxypropyl]-(4S)-(4-hydroxyphenyl)-2-azetidinone] here?
Answer: complete inhibition

Question: What about the “formation of cholesterol crystals and cholesterol gallstones” value (listed as ezetimibe) of the same compound?
Answer: inhibited

Question: What about the “development of cholelithiasis or cholesterol crystals in the bile” value (control diet low in cholesterol plus Ezetimibe) of the same compound?
Answer: did not develop cholelithiasis or cholesterol crystals

Question: What about the “mice that developed gallstones or cholesterol crystals in the gallbladder” value (lithogenic diet plus Ezetimibe 5 mg/kg/day by gavage, 100% in lithogenic diet plus water) of the same compound?
Answer: none

Reference: US8361999B2, “Methods of treating cholesterol gallstone disease with ezetimibe” (Pontificia Universidad Catolica de Chile, priority 2005, dated 2013)
